Assay results: PubChem BioAssay (NCI)
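Grown in 96-well plates, cells were treated for 48 hours with each compound at five concentrations. Insufficient inhibition: endpoint recorded as highest concentration tested. GI50 is the concentration that inhibits growth by half. TGI: concentration producing complete growth inhibition.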

Key:
Test in all cases: DTP human tumour cell line panel, 48 h
[1] = tested on: OVCAR-5 ovarian
[2] = tested on: NCI/ADR-RES ovarian
[3] = tested on: BT-549 breast
[4] = tested on: SF-539 CNS
[5] = tested on: T-47D breast
[6] = tested on: A549 NSCLC
[7] = tested on: SNB-75 CNS
[8] = tested on: OVCAR-3 ovarian
[9] = tested on: LOX IMVI melanoma
[10] = tested on: HOP-92 NSCLC
[11] = tested on: SN12C renal
[12] = tested on: SW-620 colon
[13] = tested on: HCT-15 colon
[14] = tested on: NCI-H522 lung
[15] = tested on: MCF7 breast
[16] = tested on: MDA-MB-435
[17] = tested on: CCRF-CEM leukemia
[18] = tested on: SK-OV-3 ovarian
[19] = tested on: SR leukemia
[20] = tested on: RPMI-8226 leukemia
[21] = tested on: SNB-19 CNS
[22] = tested on: MOLT-4 leukemia
[23] = tested on: RXF 393 renal
[24] = tested on: MALME-3M melanoma
[25] = tested on: IGROV1 ovarian
[26] = tested on: NCI-H23 lung
[27] = tested on: U251 CNS
[28] = tested on: K-562 leukemia
[29] = tested on: UACC-257 melanoma
[30] = tested on: 786-0 renal
[31] = tested on: HL-60(TB) leukemia
[32] = tested on: OVCAR-8 ovarian
[33] = tested on: NCI-H226 lung
[34] = tested on: PC-3 prostate
[35] = tested on: OVCAR-4 ovarian
[36] = tested on: UACC-62 melanoma
[37] = tested on: COLO 205 colon
[38] = tested on: SF-295 CNS
[39] = tested on: KM12 colon
[40] = tested on: ACHN renal
[41] = tested on: TK-10 renal
[42] = tested on: HT29 colon
[43] = tested on: A498 renal
[44] = tested on: HCC-2998 colon
[45] = tested on: HOP-62 NSCLC
[46] = tested on: SK-MEL-2 melanoma
[47] = tested on: CAKI-1 renal
[48] = tested on: UO-31 renal
[49] = tested on: SF-268 CNS
[50] = tested on: NCI-H460 lung
[51] = tested on: MDA-MB-231 breast
[52] = tested on: HCT-116 colon
[53] = tested on: DU-145 prostate
[54] = tested on: M14 melanoma
[55] = tested on: SK-MEL-28 melanoma
[56] = tested on: SK-MEL-5 melanoma
[57] = tested on: HS 578T breast

SMILES: O=C1NC(=O)/C(=C/c2ccc3ncccc3c2)S1
- GI50 [1]: 8.3 µM
- TGI [1]: > 25 µM
- GI50 [2]: > 25 µM
- TGI [2]: > 25 µM
- GI50 [3]: > 25 µM
- TGI [3]: > 25 µM
- GI50 [4]: > 25 µM
- TGI [4]: > 25 µM
- GI50 [5]: 1.23 µM
- TGI [5]: > 22.6 µM
- GI50 [6]: > 23.1 µM
- TGI [6]: > 25 µM
- GI50 [7]: 1.4 µM
- TGI [7]: > 25 µM
- GI50 [8]: > 25 µM
- TGI [8]: > 25 µM
- GI50 [9]: 13.7 µM
- TGI [9]: > 25 µM
- GI50 [10]: 0.749 µM
- TGI [10]: > 22.8 µM
- GI50 [11]: > 25 µM
- TGI [11]: > 25 µM
- GI50 [12]: > 25 µM
- TGI [12]: > 25 µM
- GI50 [13]: > 21.1 µM
- TGI [13]: > 25 µM
- GI50 [14]: > 20.3 µM
- TGI [14]: > 25 µM
- GI50 [15]: 2.02 µM
- TGI [15]: > 25 µM
- GI50 [16]: > 25 µM
- TGI [16]: > 25 µM
- GI50 [17]: > 25 µM
- TGI [17]: > 25 µM
- GI50 [18]: 6.08 µM
- TGI [18]: > 25 µM
- GI50 [19]: > 25 µM
- TGI [19]: > 25 µM
- GI50 [20]: > 25 µM
- TGI [20]: > 25 µM
- GI50 [21]: > 25 µM
- TGI [21]: > 25 µM
- GI50 [22]: > 25 µM
- TGI [22]: > 25 µM
- GI50 [23]: > 23.2 µM
- TGI [23]: > 25 µM
- GI50 [24]: 7.11 µM
- TGI [24]: > 20.7 µM
- GI50 [25]: > 6.1 µM
- TGI [25]: > 21.7 µM
- GI50 [26]: > 25 µM
- TGI [26]: > 25 µM
- GI50 [27]: > 25 µM
- TGI [27]: > 25 µM
- GI50 [28]: > 25 µM
- TGI [28]: > 25 µM
- GI50 [29]: > 14.5 µM
- TGI [29]: > 25 µM
- GI50 [30]: > 25 µM
- TGI [30]: > 25 µM
- GI50 [31]: 8.14 µM
- TGI [31]: > 25 µM
- GI50 [32]: > 25 µM
- TGI [32]: > 25 µM
- GI50 [33]: > 25 µM
- TGI [33]: > 25 µM
- GI50 [34]: 17.9 µM
- TGI [34]: > 25 µM
- GI50 [35]: > 25 µM
- TGI [35]: > 25 µM
- GI50 [36]: 16.3 µM
- TGI [36]: > 25 µM
- GI50 [37]: > 25 µM
- TGI [37]: > 25 µM
- GI50 [38]: > 25 µM
- TGI [38]: > 25 µM
- GI50 [39]: > 25 µM
- TGI [39]: > 25 µM
- GI50 [40]: > 25 µM
- TGI [40]: > 25 µM
- GI50 [41]: 6 µM
- TGI [41]: > 25 µM
- GI50 [42]: 19.9 µM
- TGI [42]: > 25 µM
- GI50 [43]: 0.307 µM
- TGI [43]: 2.2 µM
- GI50 [44]: > 25 µM
- TGI [44]: > 25 µM
- GI50 [45]: > 25 µM
- TGI [45]: > 25 µM
- GI50 [46]: > 25 µM
- TGI [46]: > 25 µM
- GI50 [47]: > 25 µM
- TGI [47]: > 25 µM
- GI50 [48]: 3.51 µM
- TGI [48]: > 25 µM
- GI50 [49]: > 25 µM
- TGI [49]: > 25 µM
- GI50 [50]: 12.6 µM
- TGI [50]: > 25 µM
- GI50 [51]: > 25 µM
- TGI [51]: > 25 µM
- GI50 [52]: > 25 µM
- TGI [52]: > 25 µM
- GI50 [53]: > 25 µM
- TGI [53]: > 25 µM
- GI50 [54]: 13.7 µM
- TGI [54]: > 25 µM
- GI50 [55]: 17.2 µM
- TGI [55]: > 25 µM
- GI50 [56]: > 25 µM
- TGI [56]: > 25 µM
- GI50 [57]: 1.96 µM
- TGI [57]: > 18.7 µM
